Reference: US20260152794A1, “EFFICACY OF CHRONIC PELVIC PAIN TREATMENT” (THE UNIVERSITY COURT OF THE UNIVERSITY OF EDINBURGH, priority 2022, published 2026)

Tests used:
[1] = tested on: women with chronic pelvic pain; test: GaPP2 trial secondary analysis: gabapentin analgesic (pain) response, worst and average pain on numerical rating scale; format: in vivo, human; settings: for Average pain (NRS), End of study: mean; for Average pain (NRS), End of study / Worst pain (NRS), End of study: numerical rating scale 1-10; for Worst pain (NRS), End of study: median
Source text: (§1) This study is a planned secondary analysis of the GaPP2 trial, a UK-based multicentre, randomised, placebo-controlled trial of gabapentin versus placebo in women with chronic pelvic pain. Trial protocol including ethical approval and exclusion and inclusion criteria are published in full elsewhere. (17) All participants were women aged 18-50 years of age, were using or willing to use contraception to avoid pregnancy and had no obvious pelvic pathology at laparoscopy which must have taken place at least 2 weeks and less than 36 months prior to consent. Participants were randomly assigned to gabapentin (titrated to maximum dose 2700 mg daily) or placebo for 16 weeks. At inclusion to the trial, participants were asked to provide a saliva sample for inclusion in this study.
(§2) Cases were categorised into two phenotypes assessing the analgesic response to gabapentin and the degree of intolerance (side-effect burden). Gabapentin analgesic response was defined categorically using the coprimary outcomes of the GaPP2 trial: worst and average pain. Gabapentin ‘responders’ were defined as having reported a ≥30% reduction in worst and/or average pain scores on a numerical rating scale (1-10) after 12 weeks of gabapentin exposure. Gabapentin intolerance was also categorised categorically using a cut-off of ≥3 side-effects reported during the study period. Cases were categorised into ≥3 side-effects and <3 side-effects.

[2] = tested on: women with chronic pelvic pain; test: GaPP2 trial secondary analysis: gabapentin intolerance (side-effect burden); format: in vivo, human; settings: side-effects reported during the study period; genotyped participants
Source text: as §1
as §2, with “Cases were categorised into ≥3 side-effects and <3 side-effects.” left out

[3] = tested on: women with chronic pelvic pain; test: Mechanistic fMRI study: brain response to abdominal punctate stimuli before and after 12 weeks of treatment; format: in vivo, human; settings: rs4442490 TT responders (n = 2) compared with TG/GG non-responders (n = 5); brain regions of Table 4
Source text: Within the sample taking part in the gabapentin RCT, a small number also took part in a mechanistic fMRI study, undergoing MRI brain scans before and after 12 weeks of treatment. […] Punctate task fMRI pre-processing is described in the supplementary materials. For those for whom both genetic and imaging data was available, the gabapentin pre- and post-treatment scans were compared. The first-level contrast of post-treatment>pre-treatment punctate vs rest was taken into a random effects analysis comparing SNP variants, with clusters achieving a whole-brain, FWE-corrected significance of p<0.05 being reported.

[4] = tested on: women with chronic pelvic pain; settings: GaPP2 trial, women with CPP (reference 7); cited from earlier work
[5] = tested on: women with chronic pelvic pain; settings: embedded mechanistic study of GaPP2 (reference 8); cited from earlier work
[6] = tested on: women with chronic pelvic pain; settings: GaPP2 trial, women with CPP (reference 7); cited from earlier work; remark: listed apart in the source
[7] = Pain non-responder group (n = 46)
[8] = after 12 weeks of gabapentin exposure, genotyped participants

**Q.** Which results are given for `NCC1(CC(=O)O)CCCCC1` [gabapentin]?
**A.** Average pain (NRS), End of study [1, 7]: 5.8; Worst pain (NRS), End of study [1, 7]: 9; Average pain (NRS), End of study ([1]; Pain responder group (n = 31), gabapentin titrated to maximum 2700 mg daily): 2.5; Worst pain (NRS), End of study ([1]; Pain responder group (n = 31)): 6; number of pain non-responders [1, 8]: (n = 46); number of pain responders (≥30% reduction in worst and/or average pain scores) [1, 8]: (n = 31); average reduction in average pain ([1]; subjects in the gabapentin pain responder group): 47%; number of participants with <3 side-effects [2]: <3 side-effects (n = 23); number of participants with ≥3 side-effects [2]: ≥3 side-effects (n = 53); fMRI punctate activation after treatment versus before [3]: decrease in punctate activation; improvement of worst or average pain scores versus placebo [4]: not superior to placebo; effect on brain region in response to abdominal punctate stimuli (functional MRI) [5]: appeared to exert an effect on the anterior cingulate cortex; side-effects versus placebo [6]: associated with more side-effects
